The source of these data is ChEMBL document CHEMBL4680169, “Synthesis and bioevaluation of new vascular-targeting and anti-angiogenic thieno[2,3-d]pyrimidin-4(3H)-ones” (Eur J Med Chem, 2020).

The term pIC50 denotes the IC50 on a negative log10 scale, so that one unit is a factor of ten. A lower pIC50 goes with a large IC50.

pIC50: −log10 of the molar value. Active and inactive are the calls of the source. The calls are words filed in the database; no cut-off is given here.

The first experiment has as its system 518A2. Kind of experiment: cells. The class given is functional, cell-based. Particulars: Homo sapiens, 518A2, 72 h.
Description: Cytotoxicity against human 518A2 cells assessed as inhibition of cell growth after 72 hrs by MTT assay
As to `O=c1[nH]c(-c2cc(F)cc(F)c2)nc2sc3c(c12)CCNC3`, the pIC50 is 5.24.
The same measure, in the same setting: with `CCOC(=O)N1CCc2c(sc3nc(-c4cc(F)cc(F)c4)[nH]c(=O)c23)C1` the figure was 5.28.
As to `COc1cc(-c2nc3sc4c(c3c(=O)[nH]2)CCNC4)cc(Br)c1OC`, the pIC50 was 5.03.
For `COc1cc(-c2nc3sc4c(c3c(=O)[nH]2)CCN(C(C)=O)C4)cc(Br)c1OC`, the pIC50 was 6.30.
The molecule `O=c1[nH]c(-c2cccc(Br)c2)nc2sc3c(c12)CCNC3` gave a pIC50 of 5.77.
The molecule `CCOC(=O)N1CCc2c(sc3nc(-c4cccc(C#N)c4)[nH]c(=O)c23)C1` had a pIC50 of 5.39.
Same read-out and setting: with `C=CC(=O)N1CCc2c(sc3nc(-c4cc(Br)c(OC)c(OC)c4)[nH]c(=O)c23)C1` the figure was 6.15; with `COc1cc(-c2nc3sc4c(c3c(=O)[nH]2)CCNC4)cc(I)c1OC`, 5.85; with `COc1c(Br)cc(-c2nc3sc4c(c3c(=O)[nH]2)CCNC4)cc1Br`, 5.24.
Same read-out and setting: with `CCOC(=O)N1CCc2c(sc3nc(-c4ccc(OC)c(O)c4)[nH]c(=O)c23)C1` the figure was 5.64.
`C=CC(=O)N1CCc2c(sc3nc(-c4cc(I)c(OC)c(OC)c4)[nH]c(=O)c23)C1` had a pIC50 of 6.70.
On to `N#Cc1cccc(-c2nc3sc4c(c3c(=O)[nH]2)CCCCC4)c1`, for which the pIC50 was 5.03.
Turning to `COc1cc(-c2nc3sc4c(c3c(=O)[nH]2)CCN(C(C)=O)C4)cc(I)c1OC`, the pIC50 is 6.52.
Still for that read-out and setting: to `COc1cc(-c2nc3sc4c(c3c(=O)[nH]2)CCCC4)cc(Br)c1OC` belongs 6.52.
Molecule `COc1c(Br)cc(-c2nc3sc4c(c3c(=O)[nH]2)CCCC4)cc1Br` showed a pIC50 of 5.62.
On the same count and under the same terms, to `COc1cc(-c2nc3sc4c(c3c(=O)[nH]2)CCCCC4)cc(I)c1OC` belongs 6.70.

A further experiment deals with KB-V1. Kind of experiment: cells. The class given is functional, cell-based. Particulars: Homo sapiens, KB-V1, 72 h.
Description: Cytotoxicity against multidrug resistant human KB-V1 cells assessed as inhibition of cell growth after 72 hrs by MTT assay
`O=c1[nH]c(-c2cc(F)cc(F)c2)nc2sc3c(c12)CCNC3` had a pIC50 of 5.19.
Same read-out and setting: with `CCOC(=O)N1CCc2c(sc3nc(-c4cc(F)cc(F)c4)[nH]c(=O)c23)C1` the figure was 5.28; with `COc1cc(-c2nc3sc4c(c3c(=O)[nH]2)CCNC4)cc(Br)c1OC`, 5.70; with `COc1cc(-c2nc3sc4c(c3c(=O)[nH]2)CCN(C(C)=O)C4)cc(Br)c1OC`, 5.55.
The same measure, in the same setting: to `O=c1[nH]c(-c2cccc(Br)c2)nc2sc3c(c12)CCNC3` belongs 5.66; to `CCOC(=O)N1CCc2c(sc3nc(-c4cccc(C#N)c4)[nH]c(=O)c23)C1`, 5.15; to `C=CC(=O)N1CCc2c(sc3nc(-c4cc(Br)c(OC)c(OC)c4)[nH]c(=O)c23)C1`, 5.72.
The same measure, in the same setting: with `COc1cc(-c2nc3sc4c(c3c(=O)[nH]2)CCNC4)cc(I)c1OC` the figure was 5.60.
The molecule `COc1c(Br)cc(-c2nc3sc4c(c3c(=O)[nH]2)CCNC4)cc1Br` showed a pIC50 of 5.21.
On the same count and under the same terms, to `CCOC(=O)N1CCc2c(sc3nc(-c4ccc(OC)c(O)c4)[nH]c(=O)c23)C1` belongs 5.66.
For the molecule `C=CC(=O)N1CCc2c(sc3nc(-c4cc(I)c(OC)c(OC)c4)[nH]c(=O)c23)C1`, the pIC50 is 5.92.
The same measure, in the same setting: with `N#Cc1cccc(-c2nc3sc4c(c3c(=O)[nH]2)CCCCC4)c1` the figure was 4.74; with `COc1cc(-c2nc3sc4c(c3c(=O)[nH]2)CCN(C(C)=O)C4)cc(I)c1OC`, 6.22.
Still for that read-out and setting: with `COc1cc(-c2nc3sc4c(c3c(=O)[nH]2)CCCC4)cc(Br)c1OC` the figure was 6.52; with `COc1c(Br)cc(-c2nc3sc4c(c3c(=O)[nH]2)CCCC4)cc1Br`, 6.15.
Same read-out and setting: to `COc1cc(-c2nc3sc4c(c3c(=O)[nH]2)CCCCC4)cc(I)c1OC` belongs 6.22.

The test system of another experiment is EA.hy 926. Kind of experiment: cells. Particulars: Homo sapiens, EA.hy 926, 72 h. The class given is functional, cell-based.
Description: Cytotoxicity against human EA.hy 926 cells assessed as inhibition of cell growth after 72 hrs by MTT assay
Regarding `O=c1[nH]c(-c2cc(F)cc(F)c2)nc2sc3c(c12)CCNC3`, the pIC50 was 5.27.
Same read-out and setting: to `CCOC(=O)N1CCc2c(sc3nc(-c4cc(F)cc(F)c4)[nH]c(=O)c23)C1` belongs 5.40.
`COc1cc(-c2nc3sc4c(c3c(=O)[nH]2)CCNC4)cc(Br)c1OC` had a pIC50 of 4.94.
On the same count and under the same terms, with `COc1cc(-c2nc3sc4c(c3c(=O)[nH]2)CCN(C(C)=O)C4)cc(Br)c1OC` the figure was 6.05.
`O=c1[nH]c(-c2cccc(Br)c2)nc2sc3c(c12)CCNC3` showed a pIC50 of 5.80.
Same read-out and setting: with `CCOC(=O)N1CCc2c(sc3nc(-c4cccc(C#N)c4)[nH]c(=O)c23)C1` the figure was 4.90; with `C=CC(=O)N1CCc2c(sc3nc(-c4cc(Br)c(OC)c(OC)c4)[nH]c(=O)c23)C1`, 6.05.
On the same count and under the same terms, to `COc1cc(-c2nc3sc4c(c3c(=O)[nH]2)CCNC4)cc(I)c1OC` belongs 6.00.
The same measure, in the same setting: to `COc1c(Br)cc(-c2nc3sc4c(c3c(=O)[nH]2)CCNC4)cc1Br` belongs 6.00.
In the case of `CCOC(=O)N1CCc2c(sc3nc(-c4ccc(OC)c(O)c4)[nH]c(=O)c23)C1`, the pIC50 is 5.35.
With `C=CC(=O)N1CCc2c(sc3nc(-c4cc(I)c(OC)c(OC)c4)[nH]c(=O)c23)C1`, the pIC50 is 6.40.
Still for that read-out and setting: to `N#Cc1cccc(-c2nc3sc4c(c3c(=O)[nH]2)CCCCC4)c1` belongs 4.88; to `COc1cc(-c2nc3sc4c(c3c(=O)[nH]2)CCN(C(C)=O)C4)cc(I)c1OC`, 7.00.
The same measure, in the same setting: to `COc1cc(-c2nc3sc4c(c3c(=O)[nH]2)CCCC4)cc(Br)c1OC` belongs 6.52; to `COc1c(Br)cc(-c2nc3sc4c(c3c(=O)[nH]2)CCCC4)cc1Br`, 6.00.
In the case of `COc1cc(-c2nc3sc4c(c3c(=O)[nH]2)CCCCC4)cc(I)c1OC`, the pIC50 is 6.70.

A further experiment has as its system HCT-116. The experiment in a line: cells. The class given is functional, cell-based. Particulars: Homo sapiens, HCT-116, 72 h.
Description: Cytotoxicity against wild type human HCT-116 cells assessed as inhibition of cell growth after 72 hrs by MTT assay
On to `O=c1[nH]c(-c2cc(F)cc(F)c2)nc2sc3c(c12)CCNC3`, for which the pIC50 was 5.16.
`CCOC(=O)N1CCc2c(sc3nc(-c4cc(F)cc(F)c4)[nH]c(=O)c23)C1` had a pIC50 of 5.80.
Still for that read-out and setting: with `COc1cc(-c2nc3sc4c(c3c(=O)[nH]2)CCNC4)cc(Br)c1OC` the figure was 4.97.
On the same count and under the same terms, to `COc1cc(-c2nc3sc4c(c3c(=O)[nH]2)CCN(C(C)=O)C4)cc(Br)c1OC` belongs 6.40; to `O=c1[nH]c(-c2cccc(Br)c2)nc2sc3c(c12)CCNC3`, 5.80.
Turning to `CCOC(=O)N1CCc2c(sc3nc(-c4cccc(C#N)c4)[nH]c(=O)c23)C1`, the pIC50 was 5.31.
In turn, `C=CC(=O)N1CCc2c(sc3nc(-c4cc(Br)c(OC)c(OC)c4)[nH]c(=O)c23)C1` showed a pIC50 of 5.37.
`COc1cc(-c2nc3sc4c(c3c(=O)[nH]2)CCNC4)cc(I)c1OC` had a pIC50 of 6.00.
The same measure, in the same setting: with `COc1c(Br)cc(-c2nc3sc4c(c3c(=O)[nH]2)CCNC4)cc1Br` the figure was 5.82; with `CCOC(=O)N1CCc2c(sc3nc(-c4ccc(OC)c(O)c4)[nH]c(=O)c23)C1`, 5.74.
With `C=CC(=O)N1CCc2c(sc3nc(-c4cc(I)c(OC)c(OC)c4)[nH]c(=O)c23)C1`, the pIC50 is 5.70.
In turn, `N#Cc1cccc(-c2nc3sc4c(c3c(=O)[nH]2)CCCCC4)c1` showed a pIC50 of 5.42.
`COc1cc(-c2nc3sc4c(c3c(=O)[nH]2)CCN(C(C)=O)C4)cc(I)c1OC`: the pIC50 is 6.70.
On the same count and under the same terms, with `COc1cc(-c2nc3sc4c(c3c(=O)[nH]2)CCCC4)cc(Br)c1OC` the figure was 6.40.
Still for that read-out and setting: to `COc1c(Br)cc(-c2nc3sc4c(c3c(=O)[nH]2)CCCC4)cc1Br` belongs 6.10; to `COc1cc(-c2nc3sc4c(c3c(=O)[nH]2)CCCCC4)cc(I)c1OC`, 6.52.

For another experiment, the system named is HCT-116. The experiment in a line: cells. The class given is functional, cell-based. Particulars: Homo sapiens, HCT-116, 72 h. The source holds these as a separate data set.
Description: Cytotoxicity against human HCT-116 p53 mutant cells assessed as inhibition of cell growth after 72 hrs by MTT assay
On to `O=c1[nH]c(-c2cc(F)cc(F)c2)nc2sc3c(c12)CCNC3`, for which the pIC50 is 5.44.
Same read-out and setting: to `CCOC(=O)N1CCc2c(sc3nc(-c4cc(F)cc(F)c4)[nH]c(=O)c23)C1` belongs 5.38; to `COc1cc(-c2nc3sc4c(c3c(=O)[nH]2)CCNC4)cc(Br)c1OC`, 5.13.
`COc1cc(-c2nc3sc4c(c3c(=O)[nH]2)CCN(C(C)=O)C4)cc(Br)c1OC` had a pIC50 of 6.30.
`O=c1[nH]c(-c2cccc(Br)c2)nc2sc3c(c12)CCNC3` showed a pIC50 of 5.85.
Same read-out and setting: to `CCOC(=O)N1CCc2c(sc3nc(-c4cccc(C#N)c4)[nH]c(=O)c23)C1` belongs 5.37; to `C=CC(=O)N1CCc2c(sc3nc(-c4cc(Br)c(OC)c(OC)c4)[nH]c(=O)c23)C1`, 5.34.
On the same count and under the same terms, with `COc1cc(-c2nc3sc4c(c3c(=O)[nH]2)CCNC4)cc(I)c1OC` the figure was 6.10; with `COc1c(Br)cc(-c2nc3sc4c(c3c(=O)[nH]2)CCNC4)cc1Br`, 5.82; with `CCOC(=O)N1CCc2c(sc3nc(-c4ccc(OC)c(O)c4)[nH]c(=O)c23)C1`, 5.25.
On to `C=CC(=O)N1CCc2c(sc3nc(-c4cc(I)c(OC)c(OC)c4)[nH]c(=O)c23)C1`, for which the pIC50 is 6.15.
The same measure, in the same setting: to `N#Cc1cccc(-c2nc3sc4c(c3c(=O)[nH]2)CCCCC4)c1` belongs 6.00.
The molecule `COc1cc(-c2nc3sc4c(c3c(=O)[nH]2)CCN(C(C)=O)C4)cc(I)c1OC` had a pIC50 of 6.40.
On the same count and under the same terms, to `COc1cc(-c2nc3sc4c(c3c(=O)[nH]2)CCCC4)cc(Br)c1OC` belongs 6.30.
The molecule `COc1c(Br)cc(-c2nc3sc4c(c3c(=O)[nH]2)CCCC4)cc1Br` showed a negative logarithm of the IC50 (pIC50) of 6.15.
The same measure, in the same setting: to `COc1cc(-c2nc3sc4c(c3c(=O)[nH]2)CCCCC4)cc(I)c1OC` belongs 6.70.

The species named for the next experiment is Sus scrofa. The experiment in a line: Inhibition of porcine brain tubulin polymerization at 10 uM measured at 20 sec interval for 2 hrs by turbidometric method.
Conditions: not given
As to `COc1cc(-c2nc3sc4c(c3c(=O)[nH]2)CCNC4)cc(I)c1OC`, the inhibition result was “Active”.
On the same count and under the same terms, to `C=CC(=O)N1CCc2c(sc3nc(-c4cc(I)c(OC)c(OC)c4)[nH]c(=O)c23)C1` belongs “Active”.
The same measure, in the same setting: with `COc1cc(-c2nc3sc4c(c3c(=O)[nH]2)CCN(C(C)=O)C4)cc(I)c1OC` the entry was “Active”.
